Take `CC(C)(C)OC(=O)c1ccccc1NC(=O)CN1C(=O)c2ccccc2C1=O`: the melting point was 159 °C.
`CCOC(=O)c1c(S(=O)(=O)O)nc(-c2ccccc2)c([N+](=O)[O-])c1C(=O)OCC` showed a melting point of 187 to 190 °C.
In the case of `O=C1CCCCC1=CC(=O)c1ccccc1` it was 75 to 77 °C; in that of `CCN(C1CC(C)(C)Oc2ccc(OCc3ccccc3)cc21)S(C)(=O)=O` (stereo not drawn), 104 to 106 °C.
With `NC(=O)CCCCCOc1cc2ccc(-c3ccc(C(=O)O)cc3)cc2cc1C12CC3CC(CC(C3)C1)C2` the figure was 209 to 210 °C.
With `CNc1nc(Nc2ccc(Cl)c(Cl)c2)ncc1NC(=O)Oc1ccccc1` the figure was 306 °C.
`CC(C)(C)C(O)c1cncnc1` (stereo not drawn) came in with a melting point of 94 to 96 °C.
In the case of `CCC12CCC3C4CCC(=O)C=C4CCC3C1CCC2(O)C(C)O` (stereo not drawn) it was 159 to 164 °C; in that of `CCOC(=O)c1c(OCN2C(=O)c3c(C(C)C)cc(OC)cc3S2(=O)=O)nc2ncccn2c1=O`, 189 to 191 °C; in that of `COC1(c2cnc(Sc3ccc(/C(C)=N/O)cc3)s2)CCOCC1`, 114 to 116 °C.
With `O=C(NCCCc1ccncc1)N(CCC12CC3CC(CC(C3)C1)C2)C1CC1` the figure was 108 to 116 °C; with `Nc1cc(-c2c(-c3ccc(Cl)cc3)nc3ccc(N4CC5CNCC5C4)nn23)ccn1` (stereo not drawn), 267 to 270 °C; with `COc1cc(C(=O)O)cc2c1C(=O)c1ccccc1CC2`, 222 to 227 °C.
As for `CCOC(=O)C(=O)Nc1nccs1`, the melting point was 174 to 177 °C.
In the case of `CCOC(=O)C1=C2NCCN2CCC1` it was 89 °C.
As to `Cc1cc(C2(C(F)(F)F)CC(n3cncn3)=NO2)ccc1NC(=O)OC(C)(C)C` (stereo not drawn), the melting point was 46 to 48 °C.
For `Cc1c(Cl)cc2c(c1Cl)OC(C(F)(F)F)C(C(=O)O)=C2` (stereo not drawn), the melting point was 230 to 231 °C.
With `Cc1cc(C)c(-n2ccc3c(N)nn(C)c(=O)c32)c(C)c1` the figure was 254 to 256 °C; with `COc1ccc(CNc2nc(NC[C@@H](C)O)nc3c2ncn3C(C)C)c(O)c1`, 106 to 108 °C.
With `N[C@H]1CCN(c2cc3c(cc2F)c(=O)c(C(=O)O)cn3-c2c[nH]nn2)C1` the figure was 300 °C; with `COc1ccc(C=C2C(=O)N(C3=NCCS3)c3ccccc32)cc1`, 164 to 167 °C; with `O=C1C(=Cc2ccccc2)CS(=O)CC1=Cc1ccccc1` (stereo not drawn), 155 to 160 °C.
In the case of `CC(=O)SCCC(=O)N(C)c1nnc(-c2cccnc2)s1` it was 133 to 135 °C; in that of `COC1C(O)C(CO)OC1n1cc(C(F)(F)F)c(=O)[nH]c1=O` (stereo not drawn), 192 to 194 °C.
`O=S(=O)(Cl)c1nc2nc(CF)cc(Cl)n2n1`: the melting point lay in the range of 92 to 98 °C.
In the case of `COc1cccc(-n2c(-c3cc(-c4ccccc4)c(N4CCOCC4)s3)nc3ccccc3c2=O)c1` it was 269 to 272 °C.
Molecule `O=C(O)Cc1ccc2c(c1)N(C1CCN(CCc3ccc(F)cc3)CC1)CC2` showed a melting point of 130 to 132 °C.
In turn, `FC(F)(F)c1ccc(CCl)cc1` displayed a melting point of 224 to 228 °C.
In the case of `CCCc1c(OCCCCCOc2ccc3c(=O)cc(C(=O)OC)oc3c2CCC)ccc(C(C)=O)c1O` it was 86 to 87 °C; in that of `CN(CCCSCCCC(F)(F)C(F)(F)F)CCOc1ccc(C2=C(c3ccccc3)CCCc3cc(O)ccc32)cc1`, 40 to 42 °C.
On to `CCOC(=O)C1=C(C)NC(=S)N(C(=O)c2ccc([N+](=O)[O-])cc2)C1c1cccc([N+](=O)[O-])c1` (stereo not drawn), for which the melting point is 139 to 141 °C.
In the case of `Nc1ccc(Oc2ccc(O)c(C(=O)O)c2)cc1` it was 223 to 224 °C.
In the case of `COC(=O)c1ccc(C(C)(C)C)[nH]c1=O` it was 171 to 174 °C; in that of `CCCC[C@H](NC(=O)[C@H](CC(C)C)NC(=O)c1ccc(C(F)(F)F)cc1F)C(=O)CSCc1ccco1`, 102 to 106 °C; in that of `CCCCCCCCCc1ccc(Oc2cccc(C#N)c2C#N)cc1`, 74 to 81 °C.
With `CCCC(SCC(=O)O)c1cc2c(cc1C)OCO2` (stereo not drawn) the figure was 77.5 to 78 °C; with `O=C(O)CCCCCOC(c1ccccc1)(c1ccccc1)c1ccccc1`, 114 to 116 °C; with `N#Cc1ccc(-c2cncc(OC3SCC(O)C(O)C3O)c2)cc1Cl` (stereo not drawn), 202 to 204 °C.
With `CC(C)(Oc1ccc(Oc2ccc(OC(C)(C)C(=O)O)cc2)cc1)C(=O)O`, the melting point amounted to 125 °C.
In the case of `CSc1ncc2cc(Oc3c(F)cccc3F)c(=O)n(C)c2n1` it was 247 to 251 °C; in that of `O=C(Nc1nc2ccc(OCc3c(Cl)cccc3Cl)cc2[nH]1)C1CC1`, 133 to 135 °C.
Molecule `CCCc1nc2c(N)nc3ccccc3c2n1OC` displayed a melting point of 210 to 211 °C.
With `CCC[C@H](N[C@@H](C)C(=O)O)C(=O)OCC` the figure was 153 to 154 °C; with `Cc1cccc(C(=O)c2[nH]c3cc(Cl)ccc3c2NC(=O)CC(C)C)c1`, 182 to 185 °C.
`CN1CCC2(CC1)NC(=O)N(c1ccc(C#N)c(C(F)(F)F)c1)C2=O`: the melting point was 188 to 189 °C.
In the case of `CC(=O)c1cc(Cl)ccc1Nc1ccc(OCc2ccccc2)cc1` it was 74 to 75 °C; in that of `CC(C)CNC(=O)N(CCCl)N=O`, 51 °C; in that of `CCN1CCN(C(=O)c2ccc(-c3[nH]nc4c3C(=O)c3c(NC(=O)NN5CCOCC5)cccc3-4)s2)CC1`, 186 to 188 °C.
In turn, `CCc1ccc(CC2N=C(c3ccc(F)cc3)c3cc(Cl)ccc3N(C)C2=O)cc1CC` (stereo not drawn) had a melting point of 54 to 56 °C.
Molecule `Cc1cc(F)ccc1OC1CC(C#CC(C)N(O)C(N)=O)C1` (single isomer, unassigned; (+)) displayed a melting point of 139 to 140 °C.
With `COc1ccc(OC)c(NC(=O)c2cc(Br)ccc2O)c1` the figure was 207 to 209 °C; with `COCCOc1ccc2ccc(NC(=O)c3ccc(OC)cc3)nc2n1`, 114 °C; with `CN(CCN(C)c1ccnc2c(NC(=O)c3c(Cl)cccc3Cl)cccc12)C(=O)c1cccnc1`, 195 to 203 °C.
With `Cc1cc2c(s1)S(=O)(=O)N(C)C(=O)C2C(=O)Nc1ccccc1` (stereo not drawn) the figure was 184 to 185 °C.
Consider `CCC(=O)C1c2cccc(O)c2C(=O)c2c(O)cccc21`, for which the melting point came to 115 °C.
The molecule `CCOP(=O)(C/C=C\CC1(C(=O)NCC(F)(F)F)c2ccccc2-c2ccccc21)OCC` returned a melting point of 88 to 91 °C.
In the case of `CCC(=O)c1ccc(OC)c(Cl)c1Cl` it was 51 to 54 °C.
In the case of `Cc1[nH]cnc1/C=C/C(=O)c1c(C)sc2ccccc12` it was 154 to 156 °C; in that of `CC(=O)N1c2ccc(N(C)C)cc2Sc2cc(N(C)C)ccc21`, 137 °C; in that of `CCCCCCCN(CCCCCSc1ncnc2[nH]ncc12)C(=O)NC(C)C`, 81 to 83 °C.
As to `O=C1C(=O)c2ccccc2C2=C1SCC1(CCC(O)CC1)O2` (stereo not drawn), the melting point was 166 to 168 °C.
In the case of `CCCCCc1nc2c(Nc3ccc(Cl)c(Cl)c3)nc3ccccc3c2[nH]1` it was 195 to 200 °C.
With `CCCOc1cccc(C(=O)O)c1O` the figure was 114 to 118 °C.

(Values after a melting point compilation (Tetko et al.; mined from patent text by program, amines drawn as free bases though some values may be those of a salt).)
